# Paper PMC3767324, “Synthesis, Characterization, and BSA Binding Studies of Some New Benzamides Related to Schiff Base” (ISRN Organic Chemistry, 2013)
# “And” between values parts separate entries of the source, which are not always exact repeats. Identical values can stand only once.
# What was measured:
# [1] = DPPH free radical scavenging activity; details: DPPH 0.1 mM, absorbance at 517 nm; triplicate, mean ± SD
# Description: The capacity to scavenge the stable free radical 2,2-diphenyl-1-picrylhydrazyl (DPPH) was monitored according to the Blois method. The test samples (10–100 μL) were mixed with 1 mL of DPPH (0.1 mM) solution and filled up with methanol to a final volume of 4 mL. Absorbance of the resulting solution was measured at 517 nm in a visible spectrophotometer (Model 166, Systronics, India). The free radical scavenging rate of the reaction solution was calculated as a percentage (%) of DPPH decolouration using the equation (1) I(%)=(Ablank−Asample/Ablank)×100, where A blank is the absorbance of the control reaction mixture excluding the test compounds, and A sample is the absorbance of the test compounds. Radical scavenging potential was expressed as IC50 value, which represents the sample concentration at which 50% of the DPPH radicals were scavenged. Tests were carried out in triplicate and the results were expressed as mean values ± standard deviations.
# DPPH radical scavenging activity evaluation is a standard assay in antioxidant activity studies and offers a rapid technique for screening the radical scavenging activity of specific compounds [24]. The free radical scavenging activity of newly synthesized compounds was tested by their ability to bleach the stable radical DPPH. The activity was monitored by following the absorption at 517 nm in a visible spectrophotometer. In the presence of any free radical scavenger, this odd electron pairs up and causes the diminishing of absorption band which is proportional to the number of electrons taken up. The activity was studied at different concentrations for each compound. […] Resulting from a color change from purple to yellow the absorbance decreased when the antioxidant molecule can quench DPPH free radical through donation of hydrogen atom or by electron donating to form a stable DPPH molecule.
# [2] = system: Escherichia coli (NCIM 2574); test: agar disc diffusion, zone of inhibition; format: cell-based; details: Escherichia coli, NCIM2574, 24 h
# Description: (§1) The in vitro antimicrobial screening effects of the compounds (3 and 5a–j) were individually tested against a panel of bacteria and fungi including Staphylococcus aureus (NCIM 5021), Bacillus subtilis (NCIM 2999), Pseudomonas aeruginosa (NCIM 5029), Escherichia coli (NCIM 2574), Candida. albicans (NCIM 3471), and Aspergillus flavus (NCIM 524). Microbial strains were cultured overnight at 37°C in nutrient and potato dextrose agar medium. All the pure microbial strains were obtained from National Chemical Laboratory (NCL), Pune, India.
# (§2) The antibacterial activity of compounds was determined by agar disc diffusion method. Briefly, a suspension of tested bacterial strains was spread on the nutrient agar medium and potato dextrose agar for fungi. The discs (6 mm in diameter) impregnated with test chemicals each dissolved in concentration (100 μg/mL in DMSO) were placed on the inoculated agar and these plates were kept at 4°C for 2 h. The plate was incubated at 37°C for 24 h in case of bacteria and 48 h at 28°C in case of fungi. streptomycin (10 μg/disc) and fluconazole (10 μg/disc) were used as the standards for antibacterial and antifungal activity, respectively. All the samples were performed in triplicate and the zone of inhibition was measured in millimeters.
# [3] = system: Pseudomonas aeruginosa (NCIM 5029); test: agar disc diffusion, zone of inhibition; format: cell-based; details: Pseudomonas aeruginosa, NCIM5029, 24 h
# Description: as §1, §2
# [4] = system: A. niger; test: agar disc diffusion, zone of inhibition; format: cell-based; details: Aspergillus niger, 48 h
# Description: [The procedure below names another organism; the source lists this organism under the same test.] as §1, §2
# [5] = system: Bacillus subtilis (NCIM 2999); test: agar disc diffusion, zone of inhibition; format: cell-based; details: Bacillus subtilis, NCIM2999, 24 h
# Description: as §1, §2
# [6] = system: Staphylococcus aureus (NCIM 5021); test: agar disc diffusion, zone of inhibition; format: cell-based; details: Staphylococcus aureus, NCIM5021, 24 h
# Description: as §1, §2
# [7] = system: Aspergillus flavus (NCIM 524); test: agar disc diffusion, zone of inhibition; format: cell-based; details: Aspergillus flavus, NCIM524, 48 h
# Description: as §1, §2
# [8] = system: Escherichia coli (NCIM 2574); test: minimum inhibitory concentration by dilution method; format: cell-based; details: Escherichia coli, NCIM2574
# Description: as §1
# (§3) The minimum inhibitory concentration of the synthesized compounds was determined by dilution method. The compounds were dissolved and then diluted using DMSO; two-fold serial concentrations of the compounds were employed to determine the MIC. In this method, the test concentrations of chemically synthesized compounds were made from 5 to 125 μg/mL.
# [9] = system: Pseudomonas aeruginosa (NCIM 5029); test: as above; format: cell-based; details: Pseudomonas aeruginosa, NCIM5029
# Description: as §1, §3
# [10] = system: A. niger; test: as above; format: cell-based
# Description: [The procedure below names another organism; the source lists this organism under the same test.] as §1, §3
# [11] = system: Bacillus subtilis (NCIM 2999); test: as above; format: cell-based; details: Bacillus subtilis, NCIM2999
# Description: as §1, §3
# [12] = system: Staphylococcus aureus (NCIM 5021); test: as above; format: cell-based
# Description: as §1, §3
# [13] = system: Aspergillus flavus (NCIM 524); test: as above; format: cell-based; details: Aspergillus flavus, NCIM524
# Description: as §1, §3
# [14] = superoxide radical scavenging assay (NBT, xanthine-xanthine oxidase system); format: biochemical; details: NBT reduction, pH 7.8, 560 nm, three replicates
# Description: Superoxide radical scavenging activity was measured as described by Kovala-Demertzi et al., (2004). The assay is based on the reduction of nitroblue tetrazolium (NBT) by superoxide ions generated by the xanthine-xanthine oxidase system (X–XO). The reaction system contained 0.2 mM xanthine and 0.6 mM NBT in 0.1 M phosphate buffer, pH 7.8. The tested compounds were dissolved in methanol. The reaction was started by addition of XO (0.07 U mL^−1), an activity which allowed to yield the absorbance change between 0.03 and 0.04 per minute, at 560 nm. The extent of NBT reduction was followed spectrophotometrically, by measuring the increase of the absorbance at 560 nm. All the experiments were replicated three times. The IC50 of each compound was defined as the concentration which inhibited 50% of the NBT reduction by O2 ^•− produced in the X–XO system.
# Superoxide anion radical is normally initially formed, and its effects can be magnified because it produces other kinds of free radicals and oxidizing agents. The enzymatic superoxide anion radical was generated by the xanthine/xanthine oxidase reaction system. The production of superoxide was estimated by the nitroblue tetrazolium method. […] Differently, in the m-position, methoxy and hydroxyl groups act as an electron-withdrawing properties, ([…]), which are possible for providing a destabilizing effect.
# [15] = Staphylococcus aureus, NCIM5021
Structure (SMILES),IC50 DPPH [1],zone of inhibition at 100 µg/mL [2] [mm],zone of inhibition at 100 µg/mL [3] [mm],zone of inhibition at 100 µg/mL [4] [mm],zone of inhibition at 100 µg/mL [5] [mm],zone of inhibition at 100 µg/mL [6] [mm],zone of inhibition at 100 µg/mL [7] [mm],MIC [8] [mg/L],MIC [9] [mg/L],MIC ([10]; Aspergillus niger) [mg/L],MIC [11] [mg/L],"MIC [12, 15] [mg/L]",MIC [13] [mg/L],IC50 Superoxide [14] [mg/L],"MIC ([10]; A. niger, dilution method, average of three replicates) [mg/L]","MIC ([12]; S. aureus, dilution method, average of three replicates) [mg/L]"
"CC(=O)N(C(=O)c1cc(F)ccc1F)c1ccc(N=Cc2cc3ccccc3o2)cc1 [Compound 5a, N-acetyl-N-(4-((benzofuran-2-ylmethylene)amino)phenyl)-2,5-difluorobenzamide]",97.5 ± 0.37 mg/L,12,14,11,16,11,10.4,25,25,15,12,12,15,91.3 ± 0.26,,
"CC(=O)N(C(=O)c1ccc(O)cc1)c1ccc(N=Cc2cc3ccccc3o2)cc1 [Compound 5j, N-acetyl-N-(4-((benzofuran-2-ylmethylene)amino)phenyl)-4-hydroxybenzamide]",15.3 ± 0.11 mg/L,11,13,9,9,12,15,50,50,40,35,35,40,11.6 ± 0.04,,
"CC(=O)N(C(=O)c1cc(F)c(F)c(F)c1)c1ccc(N=Cc2cc3ccccc3o2)cc1 [Compound 5g, N-acetyl-N-(4-(benzofuran-2-ylmethyleneamino)phenyl)-3,4,5-trifluorobenzamide]",> 100 mg/L and >125 mg/L,12.7,14,13.2,13.5,13.6,14,12,10,10,10,9.8,15,123 ± 0.44,10,9.8
"CC(=O)N(C(=O)c1ccccc1)c1ccc(N=Cc2cc3ccccc3o2)cc1 [Compound 5c, N-acetyl-N -(4-((benzofuran-2-ylmethylene)amino)phenyl)benzamide]",61.7 ± 0.55 mg/L,15,12,9,10,11,15,50,50,40,35,35,40,60.9 ± 0.28,,
"CC(=O)N(C(=O)c1cc(F)cc(F)c1)c1ccc(N=Cc2cc3ccccc3o2)cc1 [Compound 5h, N-acetyl-N-(4-((benzofuran-2-ylmethylene)amino)phenyl)-3,5-difluorobenzamide]",> 100 mg/L and 100 ± 0.19 mg/L,11,17,11.4,12,14,10.9,25,25,10,12.4,12.4,15,96.1 ± 0.31,,
"COc1ccc(C(=O)N(C(C)=O)c2ccc(N=Cc3cc4ccccc4o3)cc2)cc1 [Compound 5i, N-acetyl-N-(4-(benzofuran-2-ylmethyleneamino)phenyl)-4-methoxybenzamide]",18.5 ± 0.17 mg/L,11,13,10,10,14,14,30,35,35,50,40,30,14.3 ± 0.23,,
